Laboratory results from US20070010671A1, “Novel quinazoline derivatives and methods of treatment related to the use thereof” (priority 2003, published 2007).
Where a name gives a salt, the structure may show the parent alone.

Each compound was assayed against MCH receptor (Homo sapiens, UniProt Q99705) (assay: High throughput functional screening FLIPR/FDSS6000: inhibition of MCH-evoked intracellular Ca2+ changes). Conditions: antagonist activity, 50 nM of MCH, FLIPR or FDSS; read-out: IC50.
Type: cell-based
Method in brief: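 Cells expressing a non-endogenous, constitutively active MCH receptor were loaded with 4 μM Fluo4-AM (with probenecid) for 1 hr at 37° C. Test compound was preincubated 3 min at 37° C before 50 nM MCH was added. The [Ca2+]i transient was read at Ex 488/Em 530 nm for 290 s.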

Compound | IC50 [nM]
COc1ccc(NC(=O)N[C@H]2CC[C@@H](Nc3nc(N(C)C)c4ccccc4n3)CC2)cc1OC [Example 1, 1-(3,4-Dimethoxy)-phenyl)-3-[cis-4-(4-dimethylamino-quinazolin-2-ylamino)-cyclohexyl-urea hydrochloride] | 13

Same assay, conditions: class by percent of control at 10^-7 M or IC50

Compound | class
CN(C)c1nc(N[C@H]2CC[C@@H](CNC(=O)Nc3ccc(-c4ccccc4)s3)CC2)nc2ccccc12 [compound 768] | 3 (Class 3: The value of percent of control at 10^−7 M was more than 60% or the value of IC50 was more than 200 nM.)
CN(C)c1nc(N[C@H]2CC[C@@H](CNC(=O)NC34CC5CC(CC(C5)C3)C4)CC2)nc2ccccc12 (relative stereo) [compound 406] | 3 (Class 3: The value of percent of control at 10^−7 M was more than 60% or the value of IC50 was more than 200 nM.)
COC(=O)c1ccc(NC(=S)NC[C@H]2CC[C@@H](Nc3nc(N(C)C)c4ccccc4n3)CC2)cc1 [compound 702] | 3 (Class 3: The value of percent of control at 10^−7 M was more than 60% or the value of IC50 was more than 200 nM.)
CN(C)c1nc(N[C@H]2CC[C@@H](CNC(=S)NCCCc3ccccc3)CC2)nc2ccccc12 [compound 689] | 3 (Class 3: The value of percent of control at 10^−7 M was more than 60% or the value of IC50 was more than 200 nM.)
CN(C)c1nc(N[C@H]2CC[C@@H](CNC(=S)Nc3cc(Cl)ccc3F)CC2)nc2ccccc12 [compound 797, N-(5-choloro-2-fluorophenyl)-N′-[(cis-4-{[4-(dimethylamino)-quinazolin-2-yl]amino}cyclohexyl)methyl]thiourea] | 3 (Class 3: The value of percent of control at 10^−7 M was more than 60% or the value of IC50 was more than 200 nM.)
CN(C)c1nc(N[C@H]2CC[C@@H](CNC(=S)Nc3ccc(Br)cc3)CC2)nc2ccccc12 [compound 582] | 3 (Class 3: The value of percent of control at 10^−7 M was more than 60% or the value of IC50 was more than 200 nM.)
CN(C)c1nc(N[C@H]2CC[C@@H](NC(=S)Nc3ccc(NC(=O)OC(C)(C)C)cc3)CC2)nc2ccccc12 [compound 240] | 3 (Class 3: The value of percent of control at 10^−7 M was more than 60% or the value of IC50 was more than 200 nM.)
CN(C)c1nc(N[C@H]2CC[C@@H](CNC(=S)Nc3ccccc3C#N)CC2)nc2ccccc12 [compound 723] | 3 (Class 3: The value of percent of control at 10^−7 M was more than 60% or the value of IC50 was more than 200 nM.)
CC(=O)c1ccc(NC(=S)NC[C@H]2CC[C@@H](Nc3nc(N(C)C)c4ccccc4n3)CC2)cc1 [compound 578] | 3 (Class 3: The value of percent of control at 10^−7 M was more than 60% or the value of IC50 was more than 200 nM.)
CN(C)c1nc(N[C@H]2CC[C@@H](CNC(=O)Nc3ccccc3F)CC2)nc2ccccc12 [compound 439, N-[(cis-4-{[4-(dimethylamino)quinazolin-2-yl]amino}cyclohexyl)methyl]-N′-(2-fluorophenyl)urea] | 2 (Class 2: The value of percent of control at 10^−7 M was from 40% to 60% or the value of IC50 was from 50 nM to 200 nM.)
CN(C)c1nc(N[C@H]2CC[C@@H](NC(=S)Nc3cccnc3)CC2)nc2ccccc12 [compound 390] | 3 (Class 3: The value of percent of control at 10^−7 M was more than 60% or the value of IC50 was more than 200 nM.)
COc1ccc(CNC(=S)N[C@H]2CC[C@@H](Nc3nc(N(C)C)c4ccccc4n3)CC2)cc1 [compound 277, N-(cis-4-{[4-(dimethylamino)quinazolin-2-yl]amino}cyclohexyl)-N′-(4-methoxybenzyl)thiourea] | 2 (Class 2: The value of percent of control at 10^−7 M was from 40% to 60% or the value of IC50 was from 50 nM to 200 nM.)
CN(C)c1nc(N[C@H]2CC[C@@H](NC(=S)NC3CCCCCC3)CC2)nc2ccccc12 [compound 328, N-cycloheptyl-N′-(cis-4-{[4-(dimethylamino)quinazolin-2-yl]amino}cyclohexyl)thiourea] | 2 (Class 2: The value of percent of control at 10^−7 M was from 40% to 60% or the value of IC50 was from 50 nM to 200 nM.)
Cc1cc(NC(=O)NC[C@H]2CC[C@@H](Nc3nc(N(C)C)c4ccccc4n3)CC2)c(C(F)(F)F)o1 [compound 767, N-[(cis-4-{[4-(dimethylamino)quinazolin-2-yl]amino}cyclohexyl)methyl]-N′-[5-methyl-2-(trifluoromethyl)-3-furyl]urea] | 1 (Class 1: The value of percent of control at 10^−7 M was less than 40% or the value of IC50 was less than 50 nM.)
CN(C)c1nc(N[C@H]2CC[C@@H](CNC(=S)Nc3cc([N+](=O)[O-])ccc3Cl)CC2)nc2ccccc12 [compound 722] | 3 (Class 3: The value of percent of control at 10^−7 M was more than 60% or the value of IC50 was more than 200 nM.)
CN(C)c1nc(N[C@H]2CC[C@@H](CNC(=O)Nc3ccc(Cl)cc3C(F)(F)F)CC2)nc2ccccc12 [compound 545, N-[4-chloro-2-(trifluoromethyl)phenyl]-N′-[(cis-4-{[4-(dimethylamino)quinazolin-2-yl]amino}cyclohexyl)methyl]urea] | 1 (Class 1: The value of percent of control at 10^−7 M was less than 40% or the value of IC50 was less than 50 nM.)
CN(C)c1nc(N[C@H]2CC[C@@H](NC(=S)NC3CC4C=CC3C4)CC2)nc2ccccc12 (relative stereo) [compound 378] | 3 (Class 3: The value of percent of control at 10^−7 M was more than 60% or the value of IC50 was more than 200 nM.)
CN(C)c1nc(N[C@H]2CC[C@@H](CNC(=O)Nc3cc(Cl)ccc3[N+](=O)[O-])CC2)nc2ccccc12 [compound 566] | 3 (Class 3: The value of percent of control at 10^−7 M was more than 60% or the value of IC50 was more than 200 nM.)

Same assay, conditions: class by percent of control at 10^-7 M or by IC50; read-out: class

Compound | IC50 [nM]
CN(C)c1nc(N[C@H]2CC[C@@H](NC(=O)NCCc3ccccc3)CC2)nc2ccccc12 [compound 842, N-(cis-4-{[4-(dimethylamino)quinazolin-2-yl]amino}cyclonexyl)-N′-(2-phenylethyl)urea] | 50 to 200
CC(NC(=O)N[C@H]1CC[C@@H](Nc2nc(N(C)C)c3ccccc3n2)CC1)c1ccc(Br)cc1 (relative stereo) [compound 151] | < 50
CN(C)c1nc(N[C@H]2CC[C@@H](NC(=O)OCc3ccccc3)CC2)nc2ccccc12 [compound 858] | 50 to 200
CN(C)c1nc(N[C@H]2CC[C@@H](NC(=S)NCc3ccccc3)CC2)nc2ccccc12 [compound 156] | > 200
COc1ccc(OC)c(NC(=O)N[C@H]2CC[C@@H](Nc3nc(N(C)C)c4ccccc4n3)CC2)c1 [compound 81] | 50 to 200
CC(NC(=O)N[C@H]1CC[C@@H](Nc2nc(N(C)C)c3ccccc3n2)CC1)c1ccccc1 (relative stereo) [compound 65, N-(cis-4-{[4-(dimethylamino)quinazolin-2-yl]amino}cyclohexyl)-N′-(1-phenylethyl)urea] | < 50
CN(C)c1nc(N[C@H]2CC[C@@H](NC(=O)Nc3ccccc3OC(F)F)CC2)nc2ccccc12 [compound 69] | > 200
CN(C)c1nc(N[C@H]2CC[C@@H](NC(=O)OCc3ccc([N+](=O)[O-])cc3)CC2)nc2ccccc12 [compound 855] | < 50
COc1ccc(C)cc1NC(=O)N[C@H]1CC[C@@H](Nc2nc(N(C)C)c3ccccc3n2)CC1 [compound 105, N-(cis-4-{[4-(dimethylamino)quinazolin-2-yl]amino}cyclohexyl)-N′-(2-methoxy-5-methylphenyl)urea] | 50 to 200
CN(C)c1nc(N[C@H]2CC[C@@H](NC(=O)Nc3ccc(Cl)c(C(F)(F)F)c3)CC2)nc2ccccc12 [compound 148] | > 200
COc1ccc(NC(=O)N[C@H]2CC[C@@H](Nc3nc(N(C)C)c4ccccc4n3)CC2)c([N+](=O)[O-])c1 [compound 828] | > 200
COCCOC(=O)N[C@H]1CC[C@@H](Nc2nc(N(C)C)c3ccccc3n2)CC1 [compound 852] | > 200
CN(C)c1nc(N[C@H]2CC[C@@H](NC(=O)Nc3ccc(Br)cc3C(F)(F)F)CC2)nc2ccccc12 [compound 141, N-[4-bromo-2-(trifluoromethyl)pheny]-N′-(cis-4-{[4-(dimethylamino)quinazolin-2-yl]amino}cyclohexyl)urea] | < 50
CN(C)c1nc(N[C@H]2CC[C@@H](NC(=O)NCc3ccccc3)CC2)nc2ccccc12 [compound 9, N-benzyl-N′-(cis-4-{[4-(dimethylamino)quinazolin-2-yl]amino}cyclohexyl)urea] | 50 to 200

Same assay, conditions: class by percent of control at 10^−7 M or by IC50; read-out: class

Compound | IC50 [nM]
CN(C)c1nc(N[C@H]2CC[C@@H](CNC(=O)Nc3cccc(Cl)c3)CC2)nc2ccccc12 [Example 1022, N-(3-chlorophenyl)-N′-[(cis-4-{[4-(dimethylamino)quinazolin-2-yl]amino}cyclohexyl)methyl]urea] | 50 to 200
CN(C)c1nc(N[C@H]2CC[C@@H](C(=O)NCc3ccc(F)c(Cl)c3)CC2)nc2ccccc12 [Example 1181, cis-N-(3-chloro-4-fluorobenzyl)-4-{[4-(dimethylamino)quinazolin-2-yl]amino}cyclohexanecarboxamide] | < 50
CN(C)c1nc(N[C@H]2CC[C@@H](C(=O)NCc3cccc(Br)c3)CC2)nc2ccccc12 [Example 1160, cis-N-(3-bromobenzyl)-4-{[4-(dimethylamino)quinazolin-2-yl]amino}cyclohexanecarboxamide] | < 50
CN(C)c1nc(N[C@H]2CC[C@@H](NC(=O)c3cccnc3Oc3ccccc3OC(F)(F)F)CC2)nc2ccccc12 [Example 1033, N-(cis-4-{[4-(dimethylamino)quinazolin-2-yl]amino}cyclohexyl)-2-[2-(trifluoromethoxy)phenoxy]nicotinamide] | < 50
CN(C)c1nc(N[C@H]2CC[C@@H](CNC(=O)C(O)c3ccc(F)c(F)c3)CC2)nc2ccccc12 (relative stereo) [Example 1095, 2-(3,4-difluorophenyl)-N-[(cis-4-{[4-(dimethylamino)quinazolin-2-yl]amino}cyclohexyl)methyl]-2-hydroxyacetamide] | > 200
